Measurements published in patent EP0388510A1, “Pharmaceutical compositions and their use in the prophylaxis or the treatment of bacterial infectious diseases” (HOECHST AKTIENGESELLSCHAFT, priority 1989, dated 1990).

Test system: Methicillin-resistente Staphylokokken
Test: Minimal inhibitory concentration in the agar dilution test, 39 clinical isolates
Format: cell-based
Description: Der überraschend gefundene synergistische Effekt einer Kombination von Decaplanin und Cefpirom konnte auch mit 39 klinischen Isolaten (Methicillin-resistente Staphylokokken) gezeigt werden, von denen die meisten eine ausgeprägte Resistenz gegenüber Cefpirom zeigten (MHK > 16 µg/ml). Dazu wurde die minimale Hemmkonzentration im Agarverdünnungstest von Cefpirom, Decaplanin und einer Mischung gleicher Anteile von Cefpirom und Decaplanin bestimmt. Wie Fig. 1 zeigt, ist die antibakterielle Aktivität der Mischung deutlich höher als die jeder Einzelkomponente. Aus Fig. 1 geht hervor, daß die als Beurteilungskriterium üblicherweise herangezogene minimale Hemmkonzentration, bei der 90 % der Stämme gehemmt werden (MHK90%), für die Mischung beider Komponenten mit 0,7 µg/ml am niedrigsten ist. (MHK90% für Decaplanin: 3,5 µg/ml, MHK90% für Cefpirom: 64 µg/ml).

Compound	MIC (read-out: MHK) [µg/mL]	MIC90 (read-out: MHK90%) [µg/mL]	MHK90% (minimal inhibitory concentration at which 90 % of the 39 isolates are inhibited, from Fig. 1)
CO/N=C(\C(=O)N[C@@H]1C(=O)N2C(C(=O)[O-])=C(C[n+]3cccc4c3CCC4)CS[C@H]12)c1csc(N)n1 [Cefpirom]	> 16	64	–
CNC(CC(C)C)C(=O)NC1C(=O)NC(CC(N)=O)C(=O)NC2C(=O)NC3C(=O)NC(C(=O)NC(C(=O)O)c4cc(O)cc(O)c4-c4cc3ccc4O)C(OC3CC(C)(N)C(O)C(C)O3)c3ccc(cc3)Oc3cc2cc(c3OC2OC(CO)C(O)C(O)C2OC2OC(C)C(O)C(O)C2O)Oc2ccc(cc2Cl)C1O (stereo not drawn) [Decaplanin]	–	–	3,5 µg/ml
